Among the data in US20040142821A1, “Pesticide composition comprising malononitrile compounds” (priority 2001, published 2004) are mortality values, retold here.

In one assay the test system is Cullex pipiens pallens. Description: whole plant or invertebrate. Conditions: 24 h.
Another assay has as its system Musca domestics. Description: Pesticidal test against Musca domestics, treated filter paper with sucrose bait (Test Example 5). The conditions noted are these: 500 ppm test liquid (Formulation Example 5), 0.7 ml on filter paper, ten female adults, after 24 hours. Type of assay: in vivo. As to the method: Ten female adults of Musca domestics (house fly) were set free in the polyethylene cup, which was then kept covered. After 24 hours, their survival was examined to determine the mortality.

Each structure is given as a SMILES string.

Protocol for Cullex pipiens pallens: In 100 ml of ion-exchanged water, the test liquid had been prepared as described above, was added dropwise in an amount of 0.7 ml (the concentration of active ingredient was 3.5 ppm). Twenty final-instar larvae of Cullex pipiens pallens (common mosquito) were set free in the solution. After 1 days, their survival was examined to determine the mortality.

One may read the mortality as the percentage killed. As for `C=CCCC(C#N)(C#N)Cc1ccc(C#N)cc1` [Compound 6, 2-(3-butenyl)-2-(4-cyanobenzyl)malononitrile], the mortality at 3.5 µg/mL with Cullex pipiens pallens was 100%.

As to `C=CCCCC(C#N)(C#N)Cc1ccc(C#N)cc1` [Compound 7, 2-(4-cyanobenzyl)-2-(4-pentenyl)malononitrile], in the assay with Cullex pipiens pallens, the mortality at 3.5 µg/mL amounted to 100%.

The compound `C=CCC(C#N)(C#N)Cc1ccc(Br)cc1` [Compound 13, 2-allyl-2-(4-bromobenzyl)malononitrile] came in with a mortality at 3.5 µg/mL with Cullex pipiens pallens of 100%.

Take `CC(C)=CCC(C#N)(C#N)Cc1ccc(Cl)cc1` [Compound 25, 2-(4-chlorobenzyl)-2-(3-methyl-2-butenyl)malononitrile]: the mortality at 3.5 µg/mL in the assay with Cullex pipiens pallens is 100%.

In the assay with Cullex pipiens pallens, `CC(C)=CCC(C#N)(C#N)Cc1ccc(OC(F)(F)F)cc1` [Compound 27, 2-(3-methyl-2-butenyl)-2-(4-(trifluoromethoxy)benzyl)malononitrile] gave a mortality at 3.5 µg/mL of 100%.

`C=CCC(C#N)(C#N)Cc1cccc(OC)c1` [Compound 28, 2-allyl-2-(3-methoxybenzyl)malononitrile] came in with a mortality at 3.5 µg/mL in the assay on Cullex pipiens pallens of 100%.

As to `C=CCC(C#N)(C#N)Cc1ccc(OC)cc1` [Compound 29, 2-allyl-2-(4-methoxybenzyl)malononitrile], the mortality at 3.5 µg/mL in the assay with Cullex pipiens pallens amounted to 100%.

Turning to `C#CCC(C#N)(C#N)C(C=C)c1ccc(OC(F)(F)F)cc1` (stereo not shown) [Compound 34, 2-(2-propynyl)-2-(1-(4-(trifluoromethoxy)phenyl)-2-propenyl)malononitrile], the mortality at 3.5 µg/mL in the assay on Cullex pipiens pallens is 100%. In the assay on Musca domestics, this compound yielded a mortality at 500 ppm of 100%.

`C=CCCC(C#N)(C#N)Cc1ccc(OC(F)(F)Br)cc1` [Compound 35, 2-(3-butenyl)-2-(4-(bromodifluoromethoxy)benzyl)malononitrile]: the mortality at 3.5 µg/mL in the assay on Cullex pipiens pallens is 100%. The mortality at 500 ppm in the assay on Musca domestics came out at 100%.

Consider `C=CCCC(C#N)(C#N)Cc1ccc(OCC=C)cc1` [Compound 38, 2-(3-butenyl)-2-(4-(2-propenyloxy)benzyl)malononitrile], for which the mortality at 3.5 µg/mL in the assay with Cullex pipiens pallens was found to be 100%.

Regarding `C=CCC(C#N)(C#N)Cc1ccc(OCC)cc1` [Compound 44, 2-allyl-2-(4-ethoxybenzyl)malononitrile], the mortality at 3.5 µg/mL in the assay on Cullex pipiens pallens was found to be 100%.

`CC(C)CCC(C#N)(C#N)Cc1ccc(OC(F)(F)F)cc1` [Compound 45, 2-(3-methylbutyl)-2-(4-(trifluoromethoxy)benzyl)malononitrile]: the mortality at 3.5 µg/mL with Cullex pipiens pallens is 100%. The mortality at 500 ppm in the assay with Musca domestics was 100%.

Regarding `C=CCC(C#N)(C#N)C(C)(C)c1cccc(Cl)c1` [Compound 48, 2-allyl-2-(1-(3-chlorophenyl)-1-methylethyl)malononitrile], the mortality at 3.5 µg/mL in the assay on Cullex pipiens pallens came to 100%.

`C=CCC(C#N)(C#N)Cc1c(Cl)cccc1Cl` [Compound 54, 2-allyl-2-(2,6-dichlorobenzyl)malononitrile]: in the assay with Cullex pipiens pallens, the mortality at 3.5 µg/mL was found to be 100%.

`C=CCC(C#N)(C#N)Cc1ccc(S(C)(=O)=O)cc1` [Compound 61, 2-allyl-2-(4-(methylsulfonyl)benzyl)malononitrile] showed a mortality at 3.5 µg/mL in the assay with Cullex pipiens pallens of 100%.

In turn, `C=CCC(C#N)(C#N)Cc1ccc(C(F)(F)F)cc1[N+](=O)[O-]` [Compound 63, 2-allyl-2-(2-nitro-4-(trifluoromethyl)benzyl)malononitrile] showed a mortality at 3.5 µg/mL in the assay with Cullex pipiens pallens of 100%.

Compound `C=CCCC(C#N)(C#N)Cc1c(Cl)cc(C(F)(F)F)cc1Cl` [Compound 65, 2-(3-butenyl)-2-(2,6-dichloro-4-(trifluoromethyl)benzyl)malononitrile] showed a mortality at 3.5 µg/mL with Cullex pipiens pallens of 100%. In addition, the mortality at 500 ppm with Musca domestics worked out at 100%.

Take `C=CCCC(C#N)(C#N)Cc1ccc(C(F)(F)F)cc1[N+](=O)[O-]` [Compound 67, 2-(3-butenyl)-2-(2-nitro-4-(trifluoromethyl)benzyl)malononitrile]: the mortality at 3.5 µg/mL with Cullex pipiens pallens is 100%. The compound also gave a mortality at 500 ppm in the assay with Musca domestics of 100%.

Turning to `C=CCC(C#N)(C#N)Cc1ccc(SC)cc1` [Compound 70, 2-allyl-2-(4-(methylthio)benzyl)malononitrile], in the assay on Cullex pipiens pallens, the mortality at 3.5 µg/mL worked out at 100%.

`CCCC(C#N)(C#N)Cc1ccc(C(F)(F)F)cc1` [Compound 71, 2-propyl-2-(4-(trifluoromethyl)benzyl)malononitrile]: in the assay on Cullex pipiens pallens, the mortality at 3.5 µg/mL is 100%. In the assay on Musca domestics, the mortality at 500 ppm turned out to be 100%.

Compound `CCC(C#N)(C#N)Cc1ccc(C(F)(F)F)cc1` [Compound 75, 2-ethyl-2-(4-(trifluoromethyl)benzyl)malononitrile] yielded a mortality at 3.5 µg/mL in the assay on Cullex pipiens pallens of 100%. Moreover, in the assay with Musca domestics, the mortality at 500 ppm stood at 100%.

With `C=CCCC(C#N)(C#N)Cc1ccc(OC(C)=O)cc1` [Compound 78, 2-(3-butenyl)-2-(4-(acetyloxy)benzyl)malononitrile], in the assay on Cullex pipiens pallens, the mortality at 3.5 µg/mL amounted to 100%.

Regarding `C=CCCC(C#N)(C#N)Cc1ccc(OC(F)(F)C(F)F)cc1` [Compound 80, 2-(3-butenyl)-2-(4-(1,1,2,2-tetrafluoroethoxy)benzyl)malononitrile], in the assay with Cullex pipiens pallens, the mortality at 3.5 µg/mL came to 100%.

In turn, `C=CCCC(C#N)(C#N)Cc1ccc(OCC(F)(F)F)cc1` [Compound 81, 2-(3-butenyl)-2-(4-(2,2,2-trifluoroethoxy)benzyl)malononitrile] displayed a mortality at 3.5 µg/mL with Cullex pipiens pallens of 100%.

Compound `C=CCC(C#N)(C#N)C(OCC)c1ccc(OC(F)(F)F)cc1` (stereo not drawn) [Compound 82, 2-allyl-2-(4-(trifluoromethoxy)-α-ethoxybenzyl)malononitrile] returned a mortality at 3.5 µg/mL in the assay with Cullex pipiens pallens of 100%. Further, the mortality at 500 ppm with Musca domestics turned out to be 100%.

The compound `C=CCC(C#N)(C#N)C(OC)c1ccc(C#N)cc1` (stereo not drawn) [Compound 83, 2-allyl-2-(4-cyano-α-methoxybenzyl)malononitrile] had a mortality at 3.5 µg/mL with Cullex pipiens pallens of 100%.

`C=CCCC(C#N)(C#N)Cc1cccc(OC(F)(F)F)c1` [Compound 90, 2-(3-butenyl)-2-(3-(trifluoromethoxy)benzyl)malononitrile]: the mortality at 500 ppm in the assay with Musca domestics was found to be 100%.

In the assay on Cullex pipiens pallens, `C=CCC(C#N)(C#N)C(C#N)c1ccc(OC)cc1` (stereo not drawn) [Compound 91, 2-allyl-2-(4-methoxy-α-cyanobenzyl)malononitrile] returned a mortality at 3.5 µg/mL of 100%.

`C=CCC(C#N)(C#N)C(C#N)c1ccc(C)cc1` (stereo not drawn) [Compound 92, 2-allyl-2-(4-methyl-α-cyanobenzyl)malononitrile] had a mortality at 3.5 µg/mL in the assay on Cullex pipiens pallens of 100%. In the assay on Musca domestics, this compound yielded a mortality at 500 ppm of 100%.

For the compound `C=CCC(C#N)(C#N)Cc1ccc(C(C)=O)cc1` [Compound 97, 2-(4-acetylbenzyl)-2-allylmalononitrile], the mortality at 3.5 µg/mL in the assay with Cullex pipiens pallens came out at 100%.

In the assay with Cullex pipiens pallens, `C=CCCC(C#N)(C#N)Cc1ccc(OCC)cc1` [Compound 98, 2-(3-butenyl)-2-(4-ethoxybenzyl)malononitrile] returned a mortality at 3.5 µg/mL of 100%.

Regarding `C=CCCC(C#N)(C#N)Cc1ccc(OCCC)cc1` [Compound 99, 2-(3-butenyl)-2-(4-propoxybenzyl)malononitrile], the mortality at 3.5 µg/mL with Cullex pipiens pallens is 100%.

`C=CCCC(C#N)(C#N)Cc1ccc(OC(C)C)cc1` [Compound 100, 2-(3-butenyl)-2-(4-isopropoxybenzyl)malononitrile] gave a mortality at 3.5 µg/mL with Cullex pipiens pallens of 100%.

`C=CCC(C#N)(C#N)Cc1ccc(CC)cc1` [Compound 101, 2-allyl-2-(4-ethylbenzyl)malononitrile] gave a mortality at 3.5 µg/mL in the assay on Cullex pipiens pallens of 100%. The compound further gave a mortality at 500 ppm with Musca domestics of 100%.

On to `C=CCC(C#N)(C#N)C(c1ccc(OC(F)(F)F)cc1)C(C)(C)C` (stereo not shown) [Compound 103, 2-allyl-2-(1-(4-(trifluoromethoxy)phenyl)-2,2-dimethylpropyl)malononitrile], for which, in the assay with Cullex pipiens pallens, the mortality at 3.5 µg/mL amounted to 100%.

Take `CCCCCC(C#N)(C#N)Cc1ccc(C(F)(F)F)cc1` [Compound 104, 2-pentyl-2-(4-(trifluoromethyl)benzyl)malononitrile]: the mortality at 3.5 µg/mL in the assay on Cullex pipiens pallens is 100%.

In the assay on Cullex pipiens pallens, `CC(C)CCC(C#N)(C#N)Cc1ccc(C(F)(F)F)cc1` [Compound 105, 2-(3-methylbutyl)-2-(4-(trifluoromethyl)benzyl)malononitrile] gave a mortality at 3.5 µg/mL of 100%. In addition, the mortality at 500 ppm in the assay on Musca domestics turned out to be 100%.

Compound `CC(C)=CCC(C#N)(C#N)Cc1ccc(C(F)(F)F)cc1` [Compound 106, 2-(3-methyl-2-butenyl)-2-(4-(trifluoromethyl)benzyl)malononitrile] registered a mortality at 3.5 µg/mL with Cullex pipiens pallens of 100%.

For `CC=CCC(C#N)(C#N)Cc1ccc(C(F)(F)F)cc1` [Compound 107, 2-(2-butenyl)-2-(4-(trifluoromethyl)benzyl)malononitrile], in the assay with Cullex pipiens pallens, the mortality at 3.5 µg/mL was 100%. For the same compound, the mortality at 500 ppm with Musca domestics was determined as 100%.

Compound `C=C(C)CC(C#N)(C#N)Cc1ccc(C(F)(F)F)cc1` [Compound 108, 2-(2-methyl-2-propenyl)-2-(4-(trifluoromethyl)benzyl)malononitrile] displayed a mortality at 3.5 µg/mL with Cullex pipiens pallens of 100%. This compound also came in with a mortality at 500 ppm in the assay on Musca domestics of 100%.

In the assay with Cullex pipiens pallens, `CCC(C)C(C#N)(C#N)Cc1ccc(C(F)(F)F)cc1` (stereo not shown) [Compound 111, 2-(1-methylpropyl)-2-(4-(trifluoromethyl)benzyl)malononitrile] had a mortality at 3.5 µg/mL of 100%. In addition, in the assay on Musca domestics, the mortality at 500 ppm worked out at 100%.

In turn, `CCCC(C)C(C#N)(C#N)Cc1ccc(C(F)(F)F)cc1` (stereo not shown) [Compound 112, 2-(1-methylbutyl)-2-(4-(trifluoromethyl)benzyl)malononitrile] showed a mortality at 3.5 µg/mL with Cullex pipiens pallens of 100%.

For `CCCCC(C)C(C#N)(C#N)Cc1ccc(C(F)(F)F)cc1` (stereo not shown) [Compound 113, 2-(1-methylpentyl)-2-(4-(trifluoromethyl)benzyl)malononitrile], in the assay on Cullex pipiens pallens, the mortality at 3.5 µg/mL was found to be 100%.

In the assay on Cullex pipiens pallens, `C=CCC(C#N)(C#N)Cc1ccc(OC(C)CC)cc1` (stereo not shown) [Compound 115, 2-allyl-2-(4-(2-butyloxy)benzyl)malononitrile] returned a mortality at 3.5 µg/mL of 100%. In the assay on Musca domestics, this compound came in with a mortality at 500 ppm of 100%.

As for `C=CCC(C#N)(C#N)Cc1ccc(F)c(Oc2ccccc2)c1` [Compound 116, 2-allyl-2-(4-fluoro-3-phenoxybenzyl)malononitrile], the mortality at 3.5 µg/mL in the assay with Cullex pipiens pallens came to 100%.

For `C=CCC(C#N)(C#N)Cc1cccc(Oc2ccccc2)c1` [Compound 118, 2-allyl-2-(3-phenoxybenzyl)malononitrile], the mortality at 3.5 µg/mL in the assay with Cullex pipiens pallens stood at 100%.
